From the RepoRT retention time repository

Test: Agilent ZORBAX 300 SB-C18, 150 × 1 mm, 3.5 µm; A: water + 0.01% heptafluorobutyric acid; B: acetonitrile + 0.01% heptafluorobutyric acid; gradient (min/%B) 0/0 100/90
Details: stereoisomer not certain

Row | SMILES | LC retention time
1 | Cn1c2c(c(=O)n(C)c1=O)C1c3ccccc3OCC1C(C)(C)O2 (stereo unspecified) | 13.2 min
2 | O=C(O)CC(C(=O)O)c1c[nH]c2ccccc12 (stereo unspecified) | 8.46 min
3 | Cc1cnc[nH]1 | 5.66 min
4 | CN1CCCNCC1 | 6.55 min
5 | CN(C)C(=N)N(C)C | 6.49 min
6 | COc1ccc(NC(=O)c2ccc(C)cc2)c(OC)c1 | 14.2 min
7 | CC(C)C(C)N (stereo unspecified) | 6.98 min
8 | Cc1ccc(N)cc1N | 6.85 min
9 | Cc1ccccc1N1C(=O)NC(=O)C(=Cc2cccn2C)C1=O | 10.9 min
10 | CN(C)CCC(C)(O)Cc1ccccc1 (stereo unspecified) | 8.38 min
11 | c1ccc(-c2nc3ccccc3[nH]2)cc1 | 9.01 min
12 | CCN(Cc1ccncc1)C(=S)NCCc1ccccc1 | 10.2 min
13 | Cc1cc(C)cc(-c2nnc(-c3ccc(-c4ccccc4)cc3)o2)c1 | 20.5 min
14 | O=C(CCc1ccccc1)NN=Cc1ccccc1O | 13.3 min
15 | O=C(Cc1cccc2ccccc12)N1CCN(Cc2ccccc2)CC1 | 10.4 min
16 | O=C1c2ccccc2-c2nc3ccccc3cc21 | 14.2 min
17 | NCCN | 5.99 min
18 | C[N+]1(CC=C2COCO2)CCCCC1 | 7.48 min
19 | Cc1nn(-c2ccc(NC(=O)c3ccco3)cc2)c(=O)c2ccccc12 | 12 min
20 | CC1(C)CC(NC(=S)NC2CCCCC2)CC(C)(C)N1 | 9.89 min
21 | CNC(C)c1ccccc1 (stereo unspecified) | 7.92 min
22 | CCC(N)=O | 2.3 min
23 | NC(=O)CC(NC(N)=O)C(=O)O (stereo unspecified) | 1.47 min
24 | CCOC(CN1CCCCC1)OCC | 8.11 min
25 | CN(C)C=CC=O | 5.98 min
26 | O=c1[nH]c2ccccc2[nH]c1=O | 6.56 min

Other lines, results leading:

Row | LC retention time | SMILES
27 | 10.9 min | Cc1cc(C)c2c(CC(=O)NN(C)C)coc2c1
28 | 7.85 min | C=CN1CCCC1=O
29 | 18.1 min | Cc1ccc(C=Cc2nnc(-c3ccccc3C)o2)cc1
30 | 9.56 min | CN1COc2ccc3ccccc3c2C1
31 | 7.5 min | CCCCn1ccnc1
32 | 11.1 min | COc1cc(OC)c2cc[nH]c2c1
33 | 13.1 min | Cc1ccc(C=C2CN(C)CC(=Cc3ccc(C)cc3C)C2=O)c(C)c1
34 | 9.9 min | S=C(NN=Cc1cccnc1)Nc1ccccc1
35 | 7.47 min | CCNCCN(C)C
36 | 6.67 min | CCN1CCNCC1
37 | 9.59 min | c1ccc(-n2nnnc2-n2ccnc2)cc1
38 | 12.3 min | S=C(Nc1ccccc1)N1CCCCC1
39 | 10.7 min | CCCCCC[N+](C)(C)Cc1ccccc1
40 | 11 min | c1ccc(-c2nc(-c3cccnc3)[nH]c2-c2ccccc2)cc1
41 | 8.55 min | CC(C)OC(=O)C(C)Nc1n[nH]c(=O)[nH]c1=O (stereo unspecified)
42 | 13.1 min | O=C1CCNc2ccc(-c3ccccc3)cc21
43 | 9.25 min | NC(=O)c1ccc(NC(=S)Nc2ccccc2)cc1
44 | 7.64 min | CNCCCn1c(=O)[nH]c2ccccc21
45 | 13.1 min | COc1ccc2c(c1)C(C)N1C(=O)c3cc(OC)c(OC)cc3C1O2 (stereo unspecified)
46 | 4.71 min | CCCC(N)=O
47 | 7.46 min | NCCn1cnc2ccccc2c1=O
48 | 17.8 min | CCOc1ccc(C=CC(=O)c2ccc(C)cc2)cc1
49 | 7.83 min | Cc1ccccc1CN
50 | 8.04 min | CC(C)Nc1ccccc1
51 | 8.48 min | CC(=O)c1[nH]c2c(c1C)C(=O)CCC2
52 | 17.5 min | COc1ccc2ccccc2c1C=NNC(=O)C(c1ccccc1)c1ccccc1
53 | 10.3 min | Cc1cc(C)nc(NC(N)=NCCC(C)C)n1
54 | 9.63 min | C=C(C)CC1C=CCC(CC(=C)C)N1 (stereo unspecified)
55 | 8.3 min | O=C(NN=Cc1ccncc1)c1ccccc1
56 | 1.61 min | CC(N)=O
